Test results: patent US20200187502A1, “MICROBIOCIDAL OXADIAZOLE DERIVATIVES” (SYNGENTA PARTICIPATIONS AG, priority 2017, published 2020)

Key:
[1] = test system: Puccinia recondita f. Sp. Tritici; experiment: Fungicidal activity, wheat leaf disc curative (brown rust); format: in vivo; conditions: foliar, 200 ppm in the applied formulation, wheat leaf segments cv. Kanzler, curative (applied 1 day after inoculation), compared to untreated control, 6 to 8 days after application, read-out: disease control
In short: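 Curative leaf-segment test, cv. Kanzler: spore inoculation, dark storage 19° C/75% RH, compound spray 1 day post-inoculation. Then 12 h light/12 h dark, 19° C, 75% RH. Read-out: % disease control vs untreated check, 6–8 d after application.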

[2] = test system: Phakopsora pachyrhizi; experiment: Fungicidal activity, soybean leaf disc preventative (Asian soybean rust); format: in vivo; conditions: foliar, 200 ppm in the applied formulation, soybean leaf disks, compared to untreated control, 12 to 14 days after application, read-out: disease control
Procedure: Leaf disks or leaf segments of various plant species are cut from plants grown in a greenhouse. The cut leaf disks or segments are placed in multiwell plates (24-well format) onto water agar. The leaf disks are sprayed with a test solution before (preventative) or after (curative) inoculation. Compounds to be tested are prepared as DMSO solutions (max. 10 mg/ml) which are diluted to the appropriate concentration with 0.025% Tween20 just before spraying. The inoculated leaf disks or segments are incubated under defined conditions (temperature, relative humidity, light, etc.) according to the respective test system. A single evaluation of disease level is carried out 3 to 14 days after inoculation, depending on the pathosystem. Percent disease control relative to the untreated check leaf disks or segments is then calculated.
Soybean leaf disks are placed on water agar in multiwell plates (24-well format) and sprayed with the formulated test compound diluted in water. One day after application leaf discs are inoculated by spraying a spore suspension on the lower leaf surface. After an incubation period in a climate cabinet of 24-36 hours in darkness at 20° C. and 75% rh leaf disc are kept at 20° C. with 12 h light/day and 75% rh. The activity of a compound is assessed as percent disease control compared to untreated when an appropriate level of disease damage appears in untreated check leaf disks (12 to 14 days after application).
The following compounds at 200 ppm in the applied formulation give at least 80% disease control in this test when compared to untreated control leaf disks under the same conditions, which show extensive disease development.

[3] = test system: Glomerella lacenarium (Colletotrichum lacenarium); experiment: Fungicidal activity, liquid culture, cucumber preventative (anthracnose); format: cell-based; conditions: 20 ppm in the applied formulation, liquid culture in PDB, inhibition of growth measured photometrically 3 to 4 days after application, compared to untreated control, read-out: disease control
In short: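 PDB broth seeded with cryo-stored conidia, added onto compound (DMSO solution) in 96-well plates; 24° C.; photometric growth read at 3–4 d post-application; % inhibition vs untreated check.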

[4] = test system: Puccinia recondita f. Sp. Tritici; experiment: Fungicidal activity, wheat leaf disc preventative (brown rust); format: in vivo; conditions: foliar, 200 ppm in the applied formulation, wheat leaf segments cv. Kanzler, compared to untreated control, 7 to 9 days after application, read-out: disease control
In short: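 Preventative leaf-segment test: spray application of diluted formulated compound on wheat cv. Kanzler, spore inoculation after 1 day. Percent control relative to untreated segments rated 7 to 9 days post-application, with incubation at 19° C, 75% relative humidity, 12 h photoperiod.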

CCN(Cc1ccc(-c2noc(C(F)(F)F)n2)s1)C(=O)C(N)=O [Compound 6.5, N′-ethyl-N′-[[5-[5-(trifluoromethyl)-1,2,4-oxadiazol-3-yl]-2-thienyl]methyl]oxamide]
≥ 80%: pest or weed control at 200 ppm [1] | pest or weed control at 200 ppm [2] | inhibition of growth at 20 ppm [3] | pest or weed control at 200 ppm [4]

O=C(NCc1ccc(-c2noc(C(F)(F)F)n2)s1)C1CC1 [Compound 3.1, N-[[5-[5-(trifluoromethyl)-1,2,4-oxadiazol-3-yl]-2-thienyl]methyl]cyclopropanecarboxamide]
≥ 80%: pest or weed control at 200 ppm [1] | pest or weed control at 200 ppm [2] | inhibition of growth at 20 ppm [3] | pest or weed control at 200 ppm [4]

CCNC(=O)N(Cc1ccc(-c2noc(C(F)(F)F)n2)s1)C1CC1 [Compound 4.87, 1-cyclopropyl-3-ethyl-1-[[5-[5-(trifluoromethyl)-1,2,4-oxadiazol-3-yl]-2-thienyl]methyl]urea]
≥ 80%: pest or weed control at 200 ppm [1] | pest or weed control at 200 ppm [2] | inhibition of growth at 20 ppm [3] | pest or weed control at 200 ppm [4]

CCN(Cc1ccc(-c2noc(C(F)(F)F)n2)s1)C(=O)NC [Compound 4.5, 1-ethyl-3-methyl-1-[[5-[5-(trifluoromethyl)-1,2,4-oxadiazol-3-yl]-2-thienyl]methyl]urea]
≥ 80%: pest or weed control at 200 ppm [1] | pest or weed control at 200 ppm [2] | inhibition of growth at 20 ppm [3] | pest or weed control at 200 ppm [4]

CCNC(=O)N(C)Cc1ccc(-c2noc(C(F)(F)F)n2)s1 [Compound 4.16, 3-ethyl-1-methyl-1-[[5-[5-(trifluoromethyl)-1,2,4-oxadiazol-3-yl]-2-thienyl]methyl]urea]
≥ 80%: pest or weed control at 200 ppm [1] | pest or weed control at 200 ppm [2] | inhibition of growth at 20 ppm [3] | pest or weed control at 200 ppm [4]

CN(Cc1ccc(-c2noc(C(F)(F)F)n2)s1)C(=O)NC1CC1 [Compound 5.6, 3-cyclopropyl-1-methyl-1-[[5-[5-(trifluoromethyl)-1,2,4-oxadiazol-3-yl]-2-thienyl]methyl]urea]
≥ 80%: pest or weed control at 200 ppm [1] | pest or weed control at 200 ppm [2] | inhibition of growth at 20 ppm [3] | pest or weed control at 200 ppm [4]

CC1CC1C(=O)N(C)Cc1ccc(-c2noc(C(F)(F)F)n2)s1 (stereo not drawn) [Compound 5.25, N,2-dimethyl-N-[[5-[5-(trifluoromethyl)-1,2,4-oxadiazol-3-yl]-2-thienyl]methyl]cyclopropanecarboxamide]
≥ 80%: pest or weed control at 200 ppm [1] | pest or weed control at 200 ppm [2] | inhibition of growth at 20 ppm [3] | pest or weed control at 200 ppm [4]

COC(C)C(=O)N(C)Cc1ccc(-c2noc(C(F)(F)F)n2)s1 (stereo not drawn) [Compound 4.15, 2-methoxy-N-methyl-N-[[5-[5-(trifluoromethyl)-1,2,4-oxadiazol-3-yl]-2-thienyl]methyl]propanamide]
≥ 80%: pest or weed control at 200 ppm [1] | pest or weed control at 200 ppm [2] | inhibition of growth at 20 ppm [3] | pest or weed control at 200 ppm [4]

CCN(Cc1ccc(-c2noc(C(F)(F)F)n2)s1)C(=O)N(C)CC#N [Compound 4.70, 1-(cyanomethyl)-3-ethyl-1-methyl-3-[[5-[5-(trifluoromethyl)-1,2,4-oxadiazol-3-yl]-2-thienyl]methyl]urea]
≥ 80%: pest or weed control at 200 ppm [1] | pest or weed control at 200 ppm [2] | inhibition of growth at 20 ppm [3] | pest or weed control at 200 ppm [4]

CON(Cc1ccc(-c2noc(C(F)(F)F)n2)s1)C(=O)CC(F)(F)F [Compound 1.18, 3,3,3-trifluoro-N-methoxy-N-[[5-[5-(trifluoromethyl)-1,2,4-oxadiazol-3-yl]-2-thienyl]methyl]propanamide]
≥ 80%: pest or weed control at 200 ppm [1] | pest or weed control at 200 ppm [2] | inhibition of growth at 20 ppm [3] | pest or weed control at 200 ppm [4]

COCCC(=O)N(C)Cc1ccc(-c2noc(C(F)(F)F)n2)s1 [Compound 4.35, 3-methoxy-N-methyl-N-[[5-[5-(trifluoromethyl)-1,2,4-oxadiazol-3-yl]-2-thienyl]methyl]propanamide]
≥ 80%: pest or weed control at 200 ppm [1] | pest or weed control at 200 ppm [2] | inhibition of growth at 20 ppm [3] | pest or weed control at 200 ppm [4]

CN(Cc1ccc(-c2noc(C(F)(F)F)n2)s1)C(=O)C1CC1(F)F (stereo not drawn) [Compound 5.24, 2,2-difluoro-N-methyl-N-[[5-[5-(trifluoromethyl)-1,2,4-oxadiazol-3-yl]-2-thienyl]methyl]cyclopropanecarboxamide]
≥ 80%: pest or weed control at 200 ppm [1] | pest or weed control at 200 ppm [2] | inhibition of growth at 20 ppm [3] | pest or weed control at 200 ppm [4]

CN(Cc1ccc(-c2noc(C(F)(F)F)n2)s1)C(=O)C1(C)CC1 [Compound 5.21, N,1-dimethyl-N-[[5-[5-(trifluoromethyl)-1,2,4-oxadiazol-3-yl]-2-thienyl]methyl]cyclopropanecarboxamide]
≥ 80%: pest or weed control at 200 ppm [1] | pest or weed control at 200 ppm [2] | inhibition of growth at 20 ppm [3] | pest or weed control at 200 ppm [4]

CON(Cc1ccc(-c2noc(C(F)(F)F)n2)s1)C(=O)N1CCC2(CC2)C1 [Compound 1.58, N-methoxy-N-[[5-[5-(trifluoromethyl)-1,2,4-oxadiazol-3-yl]-2-thienyl]methyl]-5-azaspiro[2.4]heptane-5-carboxamide]
≥ 80%: pest or weed control at 200 ppm [1] | pest or weed control at 200 ppm [2] | inhibition of growth at 20 ppm [3] | pest or weed control at 200 ppm [4]

O=C(C1CC1)N(Cc1ccc(-c2noc(C(F)(F)F)n2)s1)C1CC1 [Compound 5.2, N-cyclopropyl-N-[[5-[5-(trifluoromethyl)-1,2,4-oxadiazol-3-yl]-2-thienyl]methyl]cyclopropanecarboxamide]
≥ 80%: pest or weed control at 200 ppm [1] | pest or weed control at 200 ppm [2] | inhibition of growth at 20 ppm [3] | pest or weed control at 200 ppm [4]

C#CCNC(=O)N(Cc1ccc(-c2noc(C(F)(F)F)n2)s1)OCC(F)F [Compound 4.93, 1-(2,2-difluoroethoxy)-3-prop-2-ynyl-1-[[5-[5-(trifluoromethyl)-1,2,4-oxadiazol-3-yl]-2-thienyl]methyl]urea]
≥ 80%: pest or weed control at 200 ppm [1] | pest or weed control at 200 ppm [2] | inhibition of growth at 20 ppm [3] | pest or weed control at 200 ppm [4]

COCCC(=O)N(Cc1ccc(-c2noc(C(F)(F)F)n2)s1)C(C)C [Compound 4.45, N-isopropyl-3-methoxy-N-[[5-[5-(trifluoromethyl)-1,2,4-oxadiazol-3-yl]-2-thienyl]methyl]propanamide]
≥ 80%: pest or weed control at 200 ppm [1] | pest or weed control at 200 ppm [2] | inhibition of growth at 20 ppm [3] | pest or weed control at 200 ppm [4]

CC1CC1C(=O)NCc1ccc(-c2noc(C(F)(F)F)n2)s1 (stereo not drawn) [Compound 3.5, 2-methyl-N-[[5-[5-(trifluoromethyl)-1,2,4-oxadiazol-3-yl]-2-thienyl]methyl]cyclopropanecarboxamide]
≥ 80%: pest or weed control at 200 ppm [1] | pest or weed control at 200 ppm [2] | inhibition of growth at 20 ppm [3] | pest or weed control at 200 ppm [4]

C#CCNC(=O)N(Cc1ccc(-c2noc(C(F)(F)F)n2)s1)C(C)C [Compound 4.85, 1-isopropyl-3-prop-2-ynyl-1-[[5-[5-(trifluoromethyl)-1,2,4-oxadiazol-3-yl]-2-thienyl]methyl]urea]
≥ 80%: pest or weed control at 200 ppm [1] | pest or weed control at 200 ppm [2] | inhibition of growth at 20 ppm [3] | pest or weed control at 200 ppm [4]

CON(Cc1ccc(-c2noc(C(F)(F)F)n2)s1)C(C)=O [Compound 1.25, N-methoxy-N-[[5-[5-(trifluoromethyl)-1,2,4-oxadiazol-3-yl]-2-thienyl]methyl]acetamide]
≥ 80%: pest or weed control at 200 ppm [1] | pest or weed control at 200 ppm [2] | inhibition of growth at 20 ppm [3] | pest or weed control at 200 ppm [4]

CON(Cc1ccc(-c2noc(C(F)(F)F)n2)s1)C(=O)C1CCC1 [Compound 1.13, N-methoxy-N-[[5-[5-(trifluoromethyl)-1,2,4-oxadiazol-3-yl]-2-thienyl]methyl]cyclobutanecarboxamide]
≥ 80%: pest or weed control at 200 ppm [1] | pest or weed control at 200 ppm [2] | inhibition of growth at 20 ppm [3] | pest or weed control at 200 ppm [4]
